Data published in PubChem BioAssay (NCI).
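48-hour exposure; five concentrations; linearly interpolated endpoints. TGI denotes the concentration required for complete inhibition of growth.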

Assays:
Experiment in all cases: NCI-60 cell line screen, 48 h
[1] = tested on: K-562 leukemia
[2] = tested on: SNB-75 CNS
[3] = tested on: 786-0 renal
[4] = tested on: SF-268 CNS
[5] = tested on: SW-620 colon
[6] = tested on: SK-MEL-28 melanoma
[7] = tested on: SNB-19 CNS
[8] = tested on: RPMI-8226 leukemia
[9] = tested on: SK-OV-3 ovarian
[10] = tested on: OVCAR-8 ovarian
[11] = tested on: LOX IMVI melanoma
[12] = tested on: HS 578T breast
[13] = tested on: T-47D breast
[14] = tested on: UACC-62 melanoma
[15] = tested on: DU-145 prostate
[16] = tested on: MDA-N

Measured: TGI

Clc1c(Cl)c2c(Cl)c(Cl)c1C[P+](c1ccccc1)(c1ccccc1)CC[P+](c1ccccc1)(c1ccccc1)Cc1c(Cl)c(Cl)c(c(Cl)c1Cl)C[P+](c1ccccc1)(c1ccccc1)CC[P+](c1ccccc1)(c1ccccc1)C2
9.17 µM: [1]
13.4 µM: [7]
19 µM: [10]
13.6 µM: [5]
5.13 µM: [6]
12.6 µM: [4]
4.78 µM: [8]
21.7 µM: [9]
14.2 µM: [2]
19.5 µM: [3]
7.89 µM: [11]

Cc1ccc(S(=O)(=O)OC2C(C3COC(C)(C)O3)OC3OC(C)(C)OC32)cc1 (stereo not given)
> 100 µM: [1] | [2] | [3] | [12] | [4] | [13] | [5] | [6] | [7] | [14] | [15] | [10] | [11] | [16]

O=[N+]([O-])c1cc(Cl)cc2cc(Cl)cnc12
> 100 µM: [1] | [3] | [12] | [4] | [5] | [6] | [7] | [8] | [14] | [15] | [10] | [11]
97.2 µM: [13]
98 µM: [2]

O=S(CCCl)c1c2ccccc2nc2ccccc12 (stereo not given)
> 100 µM: [1] | [2] | [3] | [4] | [13] | [5] | [6] | [7] | [9] | [14] | [15] | [10] | [11] | [16]

Cc1[nH]c(=O)nc(NCCNCCO)c1C(=O)Nc1c2ccccc2nc2ccccc12
> 100 µM: [1] | [2] | [3] | [13] | [5] | [6] | [7] | [8] | [9] | [14] | [15] | [10] | [11] | [16]

OC1CN2CCS[C@H]2C(O)C1O (stereo not given in full)
> 100 µM: [1] | [2] | [3] | [12] | [4] | [13] | [5] | [6] | [7] | [8] | [9] | [14] | [15] | [10] | [11]

O=C(CCc1cccc(O)c1)NCCc1ccc(O)cc1
> 100 µM: [1] | [3] | [12] | [4] | [13] | [6] | [7] | [9] | [14] | [15] | [10] | [11] | [16]

O=C(/C=C/c1ccco1)CC(=O)/C=C/c1ccco1
23.9 µM: [8]
26.7 µM: [1]
19.2 µM: [3]
26.8 µM: [12]
> 31.6 µM: [2] | [13] | [14] | [10]
17.1 µM: [5]
17.5 µM: [6]
31.4 µM: [7]
15 µM: [16]
13.8 µM: [11]

N/N=C1\CCCc2c1no[n+]2[O-]
> 100 µM: [1] | [2] | [3] | [12] | [4] | [5] | [6] | [7] | [8] | [9] | [14] | [15] | [10] | [11] | [16]

O=[n+]1c2ccccc2n([O-])c2cc(Br)ccc21
> 100 µM: [3] | [12] | [6] | [7]
45.9 µM: [13]
98.9 µM: [15]
61.4 µM: [8]
55.6 µM: [14]
55.3 µM: [4]
77.7 µM: [2]
75.7 µM: [5]
47.9 µM: [10]
13.6 µM: [11]
33.4 µM: [1]

C=C1c2nc3ccccc3n2C=C(c2ccccc2)N1c1ccccc1
> 100 µM: [1] | [2] | [3] | [5] | [7] | [8] | [9] | [14] | [15] | [10] | [11] | [16]

Cc1ccc(-c2csc(=Nc3c(C)n(C)n(-c4ccccc4)c3=O)n2CCO)cc1
> 100 µM: [1] | [2] | [4] | [6] | [7] | [8] | [9] | [14] | [10] | [16]

CCOP(=O)(C=C=C(C)C)OCC
> 100 µM: [1] | [2] | [3] | [12] | [4] | [13] | [5] | [6] | [7] | [9] | [14] | [15] | [10] | [11] | [16]

Cc1n[nH]c(=O)n1/N=C/c1c[nH]c2ccccc12
> 100 µM: [1] | [2] | [3] | [4] | [13] | [5] | [6] | [7] | [8] | [9] | [14] | [15] | [10]

CC#C[I+]c1ccccc1
33.3 µM: [1]
28.2 µM: [11]
99.1 µM: [9]
31.2 µM: [10]
57.6 µM: [14]
> 100 µM: [2] | [7]
28.4 µM: [3]
35.1 µM: [4]
50.4 µM: [6]

COc1ccc(O)c(C=NCCCN=Cc2cc(OC)ccc2O)c1
80.5 µM: [15]
64.7 µM: [2]
84.5 µM: [14]
> 100 µM: [1] | [3] | [5] | [6] | [7] | [16]
74.7 µM: [8]
68 µM: [12]
69.9 µM: [10]

CCCCCCCCCCCCCCCCOCC(COP(=O)([O-])OCC[N+](C)(C)C)OCCCCCCCCCCCCCCCC (stereo not given)
> 100 µM: [1] | [2] | [4] | [5] | [6] | [7] | [8] | [9] | [14] | [10] | [11]
